Data set [1] can be described thus: Human safety risk assessment (aggregate dietary and non-dietary exposure, current EPA practice). Also on record: species or system US Population. The source says: Human safety risk assessments have been conducted, using current EPA practice, for all the current and proposed new uses of indaziflam. Chronic aggregate dietary exposure (food and water) will utilize less than 4% of the cPAD for the US Population. Acute aggregate dietary exposure (food and water) for the U.S. population, utilizes 7% of the aPAD.

In a further data set the test system is cheatgrass. Description: Pre-emergence control of cheatgrass. The data set is classed as in vivo, Bromus tectorum. The source says: (§1) This provides land managers with a new opportunity to start the process of eliminating the annual grass seed bank. […] This makes indaziflam an effective tool to start the process of depleting the invasive annual grass soil seed bank. Furthermore, providing long-term control of annual grasses with indaziflam results in both reduced thatch that serves as fuel for highly destructive wildfires, and the effective creation of firebreaks that protect communities of desirable perennials. As a result, native ecosystems are promoted, allowing for increased habitat for animal species of concern including wildlife and pollinators.

A further data set deals with medusahead. Description: Pre-emergence control of medusahead. It counts as in vivo, Taeniatherum caput-medusae.
From the text: as §1

For the next data set, the system named is ventenata. In words: Pre-emergence control of ventenata. It counts as in vivo, Ventenata dubia.
From the text: as §1

A short description of data set [2]: Ruminant metabolism studies with 14C-labelled indaziflam. The data set is classed as in vivo, ruminants. Conditions: [triazine-2,4-14C] and [indane-3-14C] indaziflam. The source says: Ruminant metabolism studies have been conducted with both [triazine-2,4-^14C] indaziflam and [indane-3-^14C] indaziflam according to current EPA guidelines. Accumulation into the edible tissues was low and the metabolism of indaziflam in ruminants is well understood.

The nature of data set [3]: Dairy cow feeding study: total indaziflam residue in milk and tissues after 29 consecutive days of dosing. The data set is classed as in vivo, lactating Holstein dairy cows (Bos taurus). The protocol:
A feeding study was conducted to measure total indaziflam residue in milk, cream (milk fat), skim milk (whey), mesenteric (omental) fat, perirenal fat, subcutaneous fat, liver, kidney, muscle and excrement (feces or faeces) from lactating Holstein dairy cows (Bos taurus) following 29 consecutive days of dosing with indaziflam. The base daily dose of indaziflam was calculated to be 31 mg/kg dry matter feed. Four groups of cows were fed at 0 (control—two cows), 31 (1×—three cows), […] (3×—three cows) and 311 (10×—seven cows) mg/kg dry matter feed.
Milk was collected twice daily from all dose groups, morning and evening. Doses were administered after the morning milking. Milk was subsampled for analysis from the controls and all dose groups on study days 0, 2, 4, 7, 10, 14, 17, 21, 25, and 28. […]
The remaining cows (one control and four from the 10× dose level) entered the depuration phase of the study. […] Milk, tissues and excrement from the cows sacrificed at each interval were analyzed to monitor the decline of the residues of indaziflam and its metabolites. […]
The individual analyte derived residues were converted to indaziflam parent equivalents and summed to give a total indaziflam residue. The limit of quantitation (LOQ) for total indaziflam residue was 0.05 ppm for fat, kidney, muscle and liver. […]

The conditions of data set [4]: pH 7; cited from earlier work.

Take `Cc1ccc2c(c1)[C@H](Nc1nc(N)nc(C(C)F)n1)[C@@H](C)C2` (mixture of isomers) [indaziflam, N2-[(1R,2S)-2,3-dihydro-2,6-dimethyl-1H-inden-1-yl]-6-[(1RS)-1-fluoroethyl]-1,3,5-triazine-2,4-diamine]: in data set [1], the “Non-dietary and aggregate margins of exposure (food, drinking water, and non-dietary)” value was “above the Level of Concern”. In addition, the “Acute aggregate dietary exposure (food and water), utilization of the aPAD” value in data set [1] (U.S. population) is reported as 7 % of the aPAD. Besides, in data set [1] (US Population, all current and proposed new uses), the “Chronic aggregate dietary exposure (food and water), utilization of the cPAD” value is “less than 4 % of the cPAD”. The “Pre-emergence effectiveness compared with imazapic” value in the data set on cheatgrass (cheatgrass), in the data set with medusahead and in the data set with ventenata was “significantly more effective” throughout. Besides, in the data set with cheatgrass (single application), the “Long-term control of cheatgrass” value was “at least three years”. Also, the “Accumulation into the edible tissues” value in data set [2] is reported as “low”. In addition, the “Average total indaziflam residues in muscle” value in data set [3] (1× rate, Day 29, LOQ 0.05 ppm) was “< LOQ”. Moreover, the “Residues in all tissues and milk in the depuration phase” value in data set [3] (10× dose cows, 3 to 21 days after end of dosing) is “declined rapidly”. Further, the “log Kow” value in data set [4] is 2.8.

Values taken from US11917996B2, “Herbicidal compositions for animal grazelands and methods for applying the same” (DISCOVERY PURCHASER CORPORATION, priority 2018, dated 2024).
